According to patent US20250177448A1, “NEW USE OF PEG-PHOSPHOLIPID MOLECULES” (ICOAT MEDICAL AB, priority 2022, published 2025):
Entries after “also recorded” stand apart in the source; their conditions may differ.

How the values were obtained:
CD52 = experiment: Antibody binding to surface antigen on PEG-phospholipid coated CCRF-CEM, flow cytometry; assay type: cell-based, human; conditions: 2 mg/ml in PBS, 30 minutes room temperature; antigen around 1 nm
Procedure: (§1) CCRF-CEM were collected from cell culture medium (1×10^6 cells) and washed with PBS by centrifugation (250×g, 3 min, RT). A cell pellet of CCRF-CEM (1×10^6 cells) was incubated with PEG-phospholipid (50 μl, 2 mg/ml in PBS), 5 kDa unconjugated PEG (50 μl, 2 mg/ml in PBS) or PBS (50 μl, as control) for 30 min at RT with gentle mixing. After washing with PBS by centrifugation (200×g, 4° C., 3 min) twice, FITC-labeled three antibodies, FITC-anti-human CD52 from BioLegend (400 μg/ml, 40 μl), FITC-anti-human CD4 from BioLegend (200 μg/ml, 40 μl), or Alexa488-labelled anti-human CD8 from GeneTex (200 μg/ml, 40 μl, Alexa488 was labelled by the labelling kit) or PBS (40 μl) was mixed with the treated CCRF-CEM for 15 min at RT. As a control, CCRF-CEM was treated with 2 mg/ml PEG (5 kDa, in PBS) solution and additionally incubated with FITC- or Alexa488-labeled antibodies. After washing with PBS by centrifugation (200×g, 4° C., 3 min), CCRF-CEM were re-suspended with PBS (1 ml) for flow cytometry measurements. Samples were analyzed on a flow cytometer (BD LSR II, BD Biosciences). Post analysis processing was carried out in FlowJo (BD).
(§2) CCRF-CEM cells were incubated with PEG-phospholipid (2 mg/ml in PBS), free PEG (5 kDa, equivalent molecular weight used in the synthesis of PEG-phospholipid) or PBS (vehicle control) for 30 minutes at room temperature. After removing excess PEG-phospholipid, FITC-labelled antibodies directed towards surface antigens of different sizes, CD52, CD4, and CD8, were added. Samples were analyzed on a flow cytometer. […] The size of CD8 is estimated to be around 5-10 nm based on the crystal structure of the non-membranous part. Lastly, CD4-antibodies were not blocked by PEG-phospholipid, as expected, given that the size of the antigen (15 nm) is larger than the size of PEG-phospholipid (estimated to be around 6 nm) (FIG. 3A).

CD8 = experiment: as above; assay type: cell-based, human; conditions: 2 mg/ml in PBS, 30 minutes room temperature; antigen around 5-10 nm
Procedure: as §1, §2

blood group B antigen = experiment: Anti-blood group B antigen antibody binding to coated human erythrocytes, flow cytometry; assay type: cell-based; conditions: blood type B RBCs, 2 mg/ml in PBS, 30 min room temperature
Procedure: Human erythrocytes were isolated from healthy human donors. They were pre-selected for specific blood types and only individuals exposing blood type B antigens were used. Human blood was drawn from the donors using a vacuum blood collection tube (5 mL, EDTA-2Na treated, TERUMO Co., Tokyo, Japan).
After plasma and buffy coat were removed by centrifugation (15 min, 2500×g, 3 times), the erythrocytes were re-suspended in cold PBS.
This Example was approved by ethical committee of the University of Tokyo (KE17-13). Human red blood cells (RBC) were isolated from whole blood of a type-B donor and suspended in phosphate-buffered saline (PBS). A cell pellet of RBCs (5×10^7 cells) was incubated with PEG-phospholipid (20 μl, 2 mg/ml in PBS) or PBS (50 μl, as control) for 30 min at room temperature (RT, 20-25° C.) with gentle mixing. After wash with PBS by centrifugation (120×g, 4° C., 1 min) twice, Alexa488-labeled anti-blood group B antigen antibody (10 μl, used without dilution, Blood Group B antigen antibody [HEB-29], GeneTex) or PBS (10 μl) was mixed with the treated RBCs for 10 min at RT. After washing with PBS by centrifugation (120×g, 4° C., 1 min), RBC were re-suspended with PBS (1 ml) for flow cytometry measurements. […] Post analysis processing was carried out in FlowJo (BD).

[1] = tested on: Rhesus factors D, C, c, E and e on erythrocytes; experiment: Agglutination test and Rh phenotyping of coated erythrocytes; assay type: cell-based; conditions: 2 mg/ml final, 30 min 37° C.; one O Rh+ and two A Rh+ blood samples; vs untreated control
Procedure: Whole blood samples (one O, Rh+ blood sample and two A Rh+ blood samples) from the blood center were centrifuged in Eppendorf tubes in an Eppendorf 5810R centrifuge at 2500 rpm for 10 min at room temperature (20-25° C.) and the plasma was removed and discarded. The cell fractions were subject to three washing steps in 50 ml falcon tubes. Each washing step involved adding 45 ml phosphate buffered saline (PBS) to 1 ml cell fraction followed by centrifugation at 2500 rpm for 10 minutes at room temperature.
100 μl cell suspension was mixed with 900 μl PBS and 1000 μl PEG-phospholipid (4 mg/ml, polyethylene glycol-phospholipid with PEG of 5 kDa (PEG-phospholipid) in PBS, SUNBRIGHT® PP-050CN, N-(methylpolyoxyethylene oxycarbonyl)-1,2-dipalmitoyl-sn-glycero-3-phosphoethanolamine, sodium salt, NOF Corp., Japan) to coat the erythrocytes with 2 mg/ml PEG-phospholipid (final concentration) or 1000 μl PBS as control. The erythrocyte samples were incubated 30 min at 37° C. in an incubator under rotation in a POL-EKO laboratory incubator. The erythrocyte samples were washed three times with 2 ml PBS and centrifuged at 2500 rpm for 5 min at room temperature in a Heraeus Biofuge Pico centrifuge.
The washed erythrocyte samples were then subject to an agglutination test and Rh phenotyping. […]

[2] = Vascular and tubular distribution and detachment of PEG-phospholipid in vivo (transplanted pig kidney)
Procedure: Full information on donor and recipient pigs is given in Example 5. […] Four recipient pigs were transplanted with biotin-PEG-phospholipid-treated kidneys. Their native kidneys were not removed and remained in the animals throughout the study. The four recipient pigs were euthanized after 12, 24, 48 and 72 h, respectively and biopsies were taken at euthanasia from the biotin-PEG-phospholipid treated kidney and one of the native kidneys. Frozen sections (4 μm thickness) were incubated in Alexa488-streptavidin (GE Healthcare, 1:500) at RT for 10 min. The sections were analyzed by laser-scanning confocal microscopy (LSM510, META, Carl Zeiss, Germany).
Frozen sections (4 μm thickness) of kidneys treated with biotin-PEG-phospholipid and control kidneys were incubated in Alexa488-streptavidin (GE Healthcare, 1:500) at RT for 10 min. The sections were analyzed by laser-scanning confocal microscopy (LSM510, META, Carl Zeiss, Germany).

Substance: N-(methylpolyoxyethylene oxycarbonyl)-1,2-dipalmitoyl-sn-glycero-3-phosphoethanolamine [PEG-phospholipid]
- binding of antibodies directed towards CD52 (CD52): entirely blocked; also recorded: near complete inhibition; also recorded: effective masking
- binding capacity of CD8-antibodies (CD8): reduced but not entirely blocked; also recorded: partial masking
- binding capacity of anti-blood group B antigen-antibody (blood group B antigen): effectively reduced; also recorded: effective masking
- agglutination of erythrocytes (Rhesus factor antigens) [1]: inhibited agglutination
- t½ of PEG-phospholipid calculated from fluorescence images ([2]; pig kidney, biotin-labeled PEG-phospholipid, 95% confidence interval 8-26): 14 h
- systemic leakage of PEG-phospholipid (autologous kidneys of the recipient) ([2]; reliably detected only after 1 hour): very low
